In publication PMC3948684, “Approaches to Improve the Oral Bioavailability and Effects of Novel Anticancer Drugs Berberine and Betulinic Acid” (PLoS ONE, 2014):

Tests used:
H1650 colonies = assay: Clonogenic assay (colony formation); type: cell-based, Human; settings: BBR at 1, 3 and 10 µM
Excerpt: Supplementary file pone.0089919.s002.tif: Figure S2 Effect of BBR on colony formation. A) Effects of BBR free drug and BBR-SD on spheroid number B) on spheroid sizes. Representative clonogenic images of H1650 colonies form C) control and D) BBR free drug and BBR-SD treated groups. Colonies were stained with crystal violet staining for better visibility. Each data point is represented as mean±sem (n = 6–10). **p<0.01 and ***p<0.001 Vs respective untreated control groups. (TIF) Click here for additional data file.

[1] = In vitro drug release of BBR (USP type II paddle); type: physicochemical; settings: after 5 h; PBS pH 5.8 with 1% volpo, 37°C
Description: In vitro drug release study was conducted in PBS (pH 5.8) containing 1% volpo. Briefly, 50 mg of free drug or equivalent amount of SD form of BBR and BA were dispersed in 500 ml of release medium and the drug release profile was studied at pH 5.8. Release studies were performed according to the USP type II paddle method, at 37±0.5°C while stirring constantly at 50 rpm. Samples were withdrawn at different time points, centrifuged and drug content in the samples was analyzed by spectrometric method of analysis. The withdrawn samples were replaced by equal volumes of fresh medium maintained at the same temperature. Except replacing the 1% Volpo with 2.5% SLS, similar conditions were maintained for the in vitro drug release studies of BA in free drug and SD forms. The released BA concentrations were measured by established HPLC method.

cleaved caspase 3 = assay: IHC analysis of orthotopic lung tumor sections; type: in vivo, athymic Nu/nu mice; settings: A549 tumors
Excerpt: (§1) Formalin fixed tumors were processed for automatic histopathological procedures. The detailed procedure was provided in Data S1 [30].
(§2) C) IHC for cleaved caspase 3 and CD31: Formalin fixed tumors were processed for automatic histopathological procedures. The detailed procedure was provided in supplmmentary data (Supple). Tissue sections were dehydrated by immersing in increasing concentrations of alcohol and embedded in paraffin. Paraffin embedded specimens were cut into thin sections (4-5 µm). Tissue sections (4–5 μm thick) were mounted on poly-L-lysine–coated slides and sections were deparaffinized with xylene and rehydration through graded concentrations of alcohol, then incubated with 3% […] for 20 min to block endogenous peroxidase activity. Antigen retrieval for cleaved caspase 3 and CD31 staining was carried out for 10 min in 0.01 M sodium citrate buffer (pH 6), heated at 95°C in a steam bath followed by cooling for 30 min. Endogenous peroxidase was blocked by 3% hydrogen peroxide in PBS for 10 min. The slides were washed with PBS and incubated for 1h at room temperature with a protein blocking solution. […] Numbers of positive cells per filed was quantified by counting 10 different fields from each section. Based on the CD31 positive cells, microvessel density (MVD) was calculated (30).

CD31 = assay: IHC analysis of orthotopic lung tumor sections (microvessel density); type: in vivo, athymic Nu/nu mice; settings: A549 tumors; CD31 positive cells
Excerpt: as §1, §2

[2] = test system: TUNEL positive apoptotic cells; assay: TUNEL assay on orthotopic lung tumor sections; type: in vivo, athymic Nu/nu mice
Description: Terminal deoxynucleotidyl transferase-mediated dUTP nick end labeling (TUNEL) assay was used to study the DNA fragmentation or apoptosis detection. TUNEL assay was performed on 4–5 µm thick sections as per the kit manual. Formalin-fixed tumor tissues were embedded in paraffin and sectioned ([…]). DeadEndTM Colorimetric Apoptosis Detection System (Promega, Madison, WI) allows the recognition of apoptotic nuclei in paraffin-embedded tissue sections fixed on slides according to the manufacturer's protocol. Briefly, the equilibration buffer was added to slides and incubated for 10 minutes followed by 10-minute incubation in […] proteinase K solution. The sections were washed in PBS and incubated with TdT enzyme at 37°C for 1 h in a humidified chamber for incorporation of biotinylated nucleotides at the 3-OH ends of DNA. The slides were incubated in horseradish peroxidase-labeled streptavidin to bind the biotinylated nucleotides followed by detection with stable chromagen DAB. The images on the slides were visualized with an Olympus BX40 light microscope equipped with a computer-controlled digital camera (DP71, Olympus Center Valley, PA, USA). Three slides per group were stained and apoptotic cells were identified by dark brown […] staining.

[3] = Toxicity on chronic administration (body weights, H&E histopathology); settings: 100 mg/kg for 3 weeks
Description: A549 cells were grown in F12K Medium containing 10% FBS and standard antibiotic mix at 5% CO2 and 37°C. For orthotopic lung tumor model, mice were anesthetized with Isoflurane and a 5 mm skin incision was made to the left chest, 5 mm below the scapula. Hamilton syringes (1 ml) with 28-gauge hypodermic needles were used to inject the cell inoculums through the sixth intercostal space into the left lung. The needle was quickly advanced to a depth of 3 mm and quickly removed after the injection of the A549 cells (2 million/mouse) suspended in 100 µL PBS (pH 7.4) into the lung parenchyma. For metastatic lung tumor models H1650 cells (2 million in 100 µL PBS) were intravenously administered to mice via tail vein. […] Wounds from the incisions were closed with surgical skin clips. […] Drug treatment was started 2 weeks after the tumor cell implantation. BBR free drug or SD formulation was given orally at the dose of 100 mg/kg daily for 3 weeks. […] Body weights were monitored throughout the study. Animal survival rates were recorded during the study. The lung weights and tumor volumes were used for assessment of therapeutic activity of the treatments. After sacrificing the animals lung weights and tumor nodules were recorded in metastatic tumor models.
Orthotopic lung tumors and mice small intestine segments (ileum) were processed for normal histopathological procedures and 5–10 µm sections were made. After deparaffinization and rehydration, sections were stained with Hematoxylin and Eosin for normal histological evaluation. Similarly, small intestine segments were processed and stained with H&E and visualized under normal microscope.

[4] = parameters: method as in PMID 17531424; settings: single oral dose of 400 mg ref 20; cited from earlier work
[5] = parameters: method as in PMID 19283771; settings: oral administration of 100 mg/kg in rats ref 24; cited from earlier work
[6] = In vitro Caco-2 permeability study; settings: human, Caco-2, pH 5.8
Description: Caco-2 cells (passage #29) were cultured at 37°C with culture medium replaced every 2 days in an atmosphere of 5% CO2 and 95% relative humidity. Cells were harvested upon reaching approximately 80-90% confluence with 0.25% trypsin–EDTA. Cells were grown on 1.12 cm^2 0.4 μm pore polycarbonate membrane inserts in 12 mm × 12 transwell permeable support plates (Corning, NY, USA). Caco-2 cells were seeded onto membranes at 50,000 cells/well. Individual wells received 1.5 mL of culture medium at the bottom and 0.5 mL of medium was added to the top of inserts which was changed on alternate days. Confluent monolayers were used for permeability studies at ~21 days post seeding. Transepithelial electrical resistance (TEER) of Caco-2 monolayers was measured prior to all experiments using the EVOM volt-ohm-meter (Millicell-ERS; Millipore, USA) to ensure monolayer integrity. The TEER (Ω·cm^2) values of the cell monolayers were determined by the resistance (Ω) × effective membrane area (cm^2). TEER values were measured across each cell monolayer prior to beginning the experimentation and at the last sample collection time point. Transport studies were initiated by removing culture medium from the apical (A) and basolateral (B) sides of the cell monolayer. […] The effective permeability (Peff) (cm/s) was determined using Eq. 1: […]

COc1ccc2cc3[n+](cc2c1OC)CCc1cc2c(cc1-3)OCO2.[Cl-] [BBR free drug, 5,6-dihydro-9,10-dimethoxy-benzo[g]-1,3-benzodioxolo[5,6-a]quinolizinium, chloride]
number of colonies and colony sizes (H1650 colonies): significantly decreased | percent of BBR released [1]: Approximately 100% | number of cleaved caspase 3 positive apoptotic cells, higher compared to control (cleaved caspase 3): 4.20 fold | microvessel density (MVD) reduced compared to untreated control tumors (CD31): 1.44 fold | increase in TUNEL positive apoptotic cells compared to control tumors [2]: 2.74 fold | H&E histopathology of small intestine (ileum) [3]: No visible toxicity | body weight changes during treatment [3]: no significant change | signs of toxicity on chronic administration [3]: did not result in any toxicity | Cmax in human plasma [4]: 0.4 ng/mL | Cmax [5]: 4 ng/mL | Papp A→B at 120 min, 100 µM [6]: ~0.29 ×10⁻⁶ cm/s
